Patent US20090143279A1 (priority 2007, published 2009)
Like-named read-outs stand apart in the source and are kept apart here.

Tests used:
[1] = system: mitochondrial membrane potential; type: cell-based, mouse
reactive oxygen species = type: cell-based, mouse
OXPHOS gene expression = type: cell-based, mouse
nuOXPHOS transcripts = type: cell-based, mouse
mtOXPHOS transcripts = type: cell-based, mouse
cytochrome c = type: cell-based, mouse
[2] = system: cellular dehydrogenase activity
[3] = normalized composite Z-score vs mock-treated (DMSO) wells, Conc 20 μM
[4] = composite Z-score vs mock-treated (DMSO) wells, Conc 20 μM
[5] = 20 μM, composite Z-score vs DMSO
[6] = composite Z-score vs DMSO, Conc 20 μM
[7] = Conc 20 μM, normalized score vs mock-treated (DMSO) wells

cytochrome c, sequence (P62897 whole entry): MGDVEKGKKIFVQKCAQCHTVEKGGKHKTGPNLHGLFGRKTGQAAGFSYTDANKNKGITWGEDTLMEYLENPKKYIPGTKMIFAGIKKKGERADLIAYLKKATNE

Compound: COC1CC(C)C2OC2CC(C)C2CC(C)(C)C12 (stereo not drawn)
- ΔΨm [1, 3]: −0.699
- ROS (reactive oxygen species; [3]): 0.120
- GE-HTS (OXPHOS gene expression; [3]): −0.497
- nucOX (nuOXPHOS transcripts; [3]): −0.466
- mitoOX (mtOXPHOS transcripts; [3]): −0.439
- cyt c (cytochrome c; [3]): 0.933
- Viability (C2C12 myotubes; [3]): −1.011
- MTT [2, 3]: −0.794

Compound: C=C1[C@@H]2CC[C@@]3(C)[C@H](c4ccoc4)OC(=O)C[C@]13O[C@H]1CC(=O)C(C)(C)[C@H](CC(=O)OC)[C@]12C [angolensic acid, methyl ester]
- ΔΨm [1, 4]: 0.163
- ROS (reactive oxygen species; [4]): 0.465
- GE-HTS (OXPHOS gene expression; [4]): 0.827
- nucOX (nuOXPHOS transcripts; [4]): 0.729
- mitoOX (mtOXPHOS transcripts; [4]): 0.813
- cyt c (cytochrome c; [4]): −0.204
- Viability (C2C12 myotubes; [4]): 1.019
- MTT [2, 4]: 0.322

Compound: Cc1onc(-c2ccccc2Cl)c1C(=O)N[C@@H]1C(=O)N2[C@@H]1SC(C)(C)[C@@H]2C(=O)O [cloxacillin]
- ΔΨm [1, 5]: −0.339
- ROS (reactive oxygen species; [5]): 0.259
- GE-HTS (OXPHOS gene expression; [5]): −0.568
- nucOX (nuOXPHOS transcripts; [5]): −0.506
- mitoOX (mtOXPHOS transcripts; [5]): −0.508
- cyt c (cytochrome c; [5]): 0.459
- Viability (C2C12 myotubes; [5]): −0.395
- MTT [2, 5]: −1.769

Compound: C=C1CCC2C(CC2(C)C)C(=C)CCC1=NO (stereo not drawn) [5-hydroxyiminoisocaryophyllene]
- ΔΨm [1, 4]: 0.413
- ROS (reactive oxygen species; [4]): 0.922
- GE-HTS (OXPHOS gene expression; [4]): −0.023
- nucOX (nuOXPHOS transcripts; [4]): −0.273
- mitoOX (mtOXPHOS transcripts; [4]): 0.421
- cyt c (cytochrome c; [4]): 0.117
- Viability (C2C12 myotubes; [4]): 0.181
- MTT [2, 4]: 1.325

Compound: (−)-asarinin
- ΔΨm [1, 6]: −0.439
- ROS (reactive oxygen species; [6]): −0.229
- GE-HTS (OXPHOS gene expression; [6]): −1.167
- nucOX (nuOXPHOS transcripts; [6]): −0.726
- mitoOX (mtOXPHOS transcripts; [6]): −1.858
- cyt c (cytochrome c; [6]): 0.607
- Viability (C2C12 myotubes; [6]): −0.632
- MTT [2, 6]: −0.505

Compound: COC(=O)[C@@H]1OC(=O)C2OC23[C@@]1(C)CCC1[C@]2(C)C(C[C@@H](O)[C@]13C)C(C)(C)[C@H](OC(C)=O)C[C@@H]2OC(C)=O (stereo partly drawn)
- ΔΨm [1, 4]: −0.579
- ROS (reactive oxygen species; [4]): 0.177
- GE-HTS (OXPHOS gene expression; [4]): −0.376
- nucOX (nuOXPHOS transcripts; [4]): −0.485
- mitoOX (mtOXPHOS transcripts; [4]): −0.039
- cyt c (cytochrome c; [4]): 1.004
- Viability (C2C12 myotubes; [4]): 0.474
- MTT [2, 4]: −0.427

Compound: CC(=O)OC1CC2C(C)(C)[C@@H](O)CC[C@]2(C)C2CC[C@]3(C)[C@H](c4ccoc4)OC(=O)[C@H]4O[C@]43[C@]12C (stereo partly drawn) [3beta-hydroxydeoxodihydrogedunin]
- ΔΨm [1, 4]: 0.674
- ROS (reactive oxygen species; [4]): 0.170
- GE-HTS (OXPHOS gene expression; [4]): −0.585
- nucOX (nuOXPHOS transcripts; [4]): −0.648
- mitoOX (mtOXPHOS transcripts; [4]): −0.302
- cyt c (cytochrome c; [4]): 0.591
- Viability (C2C12 myotubes; [4]): −0.364
- MTT [2, 4]: −0.540

Compound: CCOc1ccc(C(=O)C2=C(O)C(OC)C(O)(OC)C=C2)cc1 (stereo not drawn)
- ΔΨm (composite Z-score) [1, 7]: 0.089
- ROS (composite Z-score) (reactive oxygen species; [7]): −0.264
- GE-HTS (composite Z-score) (OXPHOS gene expression; [7]): −1.530
- nucOX (composite Z-score) (nuOXPHOS transcripts; [7]): −1.393
- mitoOX (composite Z-score) (mtOXPHOS transcripts; [7]): −1.568
- cyt c (composite Z-score) (cytochrome c; [7]): 0.559
- Viability (composite Z-score) (C2C12 myotubes; [7]): −0.048
- MTT (composite Z-score) [2, 7]: −1.130

Compound: ginkgolic acid
- ΔΨm [1, 6]: −0.905
- ROS (reactive oxygen species; [6]): −0.116
- GE-HTS (OXPHOS gene expression; [6]): −0.062
- nucOX (nuOXPHOS transcripts; [6]): −0.315
- mitoOX (mtOXPHOS transcripts; [6]): 0.505
- cyt c (cytochrome c; [6]): 0.587
- Viability (C2C12 myotubes; [6]): −0.686
- MTT [2, 6]: −0.461
